Entries after “also recorded” stand apart in the source; their conditions may differ.
Assays:
BV2 microglial cells [1] = assay: iNOS expression by western blot in BV2 microglia activated with α-synuclein; type: cell-based, Murine; conditions: for down regulation of iNOS expression: α-synuclein aggregates 20 μM; for inhibition of iNOS expression induced by α-synuclein monomers: inhibitor 30 min pre-treatment, monomers 20 μM
Experimental: Murine (microglial cell line (BV2 cells)) was culture in Dulbecco's modified Eagle's medium (DMEM) containing 10% Fetal Bovine Serum (Invitrogen) with 100 U/ml Penicillin and 100 U/ml Streptomycin (Invitrogen) in 5% CO2 atmosphere at 37° C. One day before BV2 were seeded at a concentration of 2×10^5 cells/well in 24 wells plate (Nunc). The BV2 cells were treated with α-synuclein monomers and aggregates at different concentrations: 5 μM, 10 μM and 20 μM. The cells were also treated with LPS (Sigma-Aldrich) at 1 μg/ml. All the treatments were conducted for 12 h.
We used a small inhibitory molecule for galectin-3 activity, bis-{3-deoxy-3-[4-(3-fluorophenyl)-1H-1,2,3-triazol-1-yl]-β-D-galactopyranosyl} sulfane (Mackinnon et al., 2012, Volarevic et al., 2012, Saksida et al., 2013). This inhibitor was used as pre-treatment for 30 min throughout the study, except in the phagocytic assay when we used 12 h incubation time. To test the inhibitor ability alter α-synuclein-induced inflammation, we tested different concentration, from 5 μM to 100 μM. After 30 min pre-treatment with the inhibitor, we add the treatments of α-synuclein monomers or aggregates of at different concentration for 12 h. The inhibitor is dilute in DMSO (40%) and distilled water (60%) in a stock concentration of 4 mM.
Transfection of BV2 cells was carried out using Lipofectamine 2000 (Invitrogen) following the manufacturer's recommendation. Non-targeting control and galectin-3 siRNAs were obtained from Dharmacon. (SMART pool) siRNA sequence used: siLGal3S3(1) J-041097-09 GAGAGAUACCCAUCGCUUU (SEQ ID NO:4), siLGal3S3(2) J-041097-10 ACUUCAAGGUUGCGGUCAA (SEQ ID NO:5), siLGal3S3(3) J-041097-11 ACAGUGAAACCCAACGCAA (SEQ ID NO:6), siLGal3S3(4) J-041097-12 GGAUGAAGAACCUCCGGGA (SEQ ID NO:7).
Western blot was performed for iNOS and galectin-3 protein levels for BV2 microglial cell or for primary microglial cells. Briefly, 5 or 10 μg of proteins of sample were loaded on 4-20% Mini-Protean TGX Precast Gels (Bio-Rad) and the transferred to Nitrocellulose membrane (Bio-Rad) using Trans-Blot Turbo System (Bio-Rad). We blocked the membrane during 1 h at room temperature with 10% Casein (Sigma-Aldrich) diluted in PBS (tablets, Sigma-Aldrich). After blocking we incubate with the primary appropriate antibody at 4° C. overnight. We clean the membranes with PBS-Tween 20 (0.1%) and then incubate during 2 h at room temperature with the appropriate peroxidase secondary antibody (Vector Labs). Each blot was developed using Clarity Western ECL Substrate (Biorad). The protein level, measured by Bradford assay (Thermo Scientific), was normalized correcting the protein level with β-Actin. The results were normalized to the highest concentration used (20 μM) in each experiment in order to normalize inflammatory response. We also used Western Blot to estimate the composition of the α-synuclein aggregates that we generated from monomeric α-synuclein.
Next, we wanted to assess the role of galectin-3 inhibition in α-synuclein-induced activation of microglial cells. To this end, microglial cells were pretreated with the galectin-3 inhibitor at different concentrations (5, 25, 50 and 100 μM), for 30 min, then the cells were washed to remove the inhibitor to further treat them with α-synuclein monomers or aggregates (20 μM) for 12 h whereafter the iNOS protein expression levels were analyzed. […] Indeed, more than 50% down regulation of iNOS expression was found at 50 and 100 μM inhibitor treatment.
To further test the role of galectin-3 in microglial activation, we decided to knockdown galectin-3 expression in BV2 cells using small interferring RNA (siRNA). Galectin-3 and siRNA negative control knocked-down cells were treated with α-synuclein aggregates (20 μM) for 12 h and their iNOS expression levels were compared using western blot analysis. […] Western blot analysis showing iNOS and β-actin protein levels.

BV2 microglial cells [2] = assay: Phagocytic assay (uptake of IgG-FITC beads) in α-synuclein-activated BV2 microglia; type: cell-based, Murine; conditions: for phagocytic ability on adding galectin-3 protein: BV2 cells, 12 h
Experimental: We measure microglial phagocytosis using a phagocytosis assay kit (Cayman Chem, USA) according to the protocol provided by the manufacturer's. We plated 5×10^4 cells/well in 96 well plates for 12 h before treating the cells with α-synuclein 20 μM for additional 12 h. Thereafter IgG-FITC beads we added with or without galectin-3 inhibitor for 12 h. The phagocytic ability was analyzed by a fluorescent plate reader (FluoStar Optima, BMG, LabTech, Sweden).
To test the implication of galectin-3 on phagocytic ability of microglial cells in our model of α-synuclein induced activation, we pre-treated the cells with 100 μM of galectin-3 inhibitor for 30 min and subsequently treated them with α-synuclein aggregates or combining both for 12 h. Microglial cells activated with α-synuclein show high phagocytic activity (FIG. 4).

BV2 cells = assay: XTT viability assay; type: cell-based, Murine; conditions: alone or in combination with α-synuclein aggregates; data not shown
Experimental: To test if the α-synuclein, the galectin-3 inhibitor, or both, are toxic for BV2 cells in different conditions, we used an in vitro viability assay kit based on a XTT (Sigma-Aldrich) reduction spectrophotometric method to estimate the mitochondrial activity in living cells. The assay was performed following manufacturer's protocol provided in the kit. The absorbance was measured by spectrophotometrically using a plate reader.

galectins = conditions: compared with N-acetyllactosamine; cited from earlier work

Q: For `OC[C@H]1O[C@@H](S[C@@H]2O[C@H](CO)[C@H](O)[C@H](n3cc(-c4cccc(F)c4)nn3)[C@H]2O)[C@H](O)[C@@H](n2cc(-c3cccc(F)c3)nn2)[C@H]1O` [TD139, Bis-{3-deoxy-3-[4-(3-fluorophenyl)-1H-1,2,3-triazol-1-yl]-β-D-galactopyranosyl} sulfane], which “down regulation of iNOS expression” value (BV2 microglial cells [1]; 50 μM inhibitor, 30 min pre-treatment, 12 h) is on record?
A: Its value is “more than 50%”.

Q: And the “down regulation of iNOS expression” value (BV2 microglial cells [1]; 100 μM inhibitor, 30 min pre-treatment, 12 h)?
A: The value was “more than 50%”.

Q: What about the “inhibition of iNOS expression induced by α-synuclein aggregates” value (BV2 microglial cells [1]; inhibitor 5, 25, 50 and 100 μM, 30 min pre-treatment, aggregates 20 μM, 12 h) of the same molecule?
A: Its value is “significantly inhibited”.

Q: And the “inhibition of iNOS expression induced by α-synuclein monomers” value (BV2 microglial cells [1]; 12 h)?
A: The value was “not significantly inhibited”.

Q: What about the “inhibition of iNOS expression induced by α-synuclein monomers” value (BV2 microglial cells [1]; 12 h, listed as galectin-3 inhibitor) of the same molecule?
A: The value was “not to monomers”.

Q: And the “inflammatory response induced by α-synuclein” value (BV2 microglial cells [1]; summary statement, BV2 microglia)?
A: Its value is “significant reduction”.

Q: What about the phagocytic ability (BV2 microglial cells [2]; 100 μM inhibitor as 30 min pre-treatment only) of the same molecule?
A: Its phagocytic ability is “couldn't find any difference”.

Q: What about the phagocytic ability (BV2 microglial cells [2]; 100 μM inhibitor combined with α-synuclein aggregates 20 μM for 12 h) of the same molecule?
A: The phagocytic ability was “reduced phagocytic ability; also recorded: robustly inhibited the phagocytosis”.

Q: And the phagocytic ability (BV2 microglial cells [2]; 100 μM inhibitor combined with α-synuclein aggregates 20 μM for 12 h, listed as galectin-3 inhibitor)?
A: The phagocytic ability was “robustly reduced to control levels”.

Q: And the cell viability (BV2 cells)?
A: Its cell viability is “does not negatively affect cell viability”.

Q: Which “efficiency as galectin inhibitor” value (galectins) does the source give for `OC[C@H]1O[C@@H](S[C@@H]2O[C@H](CO)[C@H](O)[C@H](O)[C@H]2O)[C@H](O)[C@@H](O)[C@H]1O` [thiodigalactoside] here?
A: The value was “approximately as efficient as N-acetyllactosamine”.

Q: For “galectin-3 protein: galectin-3 protein added to microglial cells in the phagocytic assay”, which “phagocytic ability on adding galectin-3 protein” value (BV2 microglial cells [2]) is on record?
A: Its value is “increases the phagocytic ability to a similar extent as α-synuclein aggregates”.

Q: What about the “phagocytic ability on adding galectin-3 protein” value (BV2 microglial cells [2]; listed as galectin-3) of the same molecule?
A: Its value is “recover the phagocytic ability”.
